The subject of one data set is cell lines employed. In words: Toxicity of deacetylase inhibitors (lift-off, trypan-blue dye exclusion, laddering, PI/annexin-V flow cytometry). The class given is cell-based. Particulars: 1 mM Na-butyrate for 12-48 hr. The method, then:
Two representative DAIs, TSA and NaBu were used for this illustration. […] In some experiments, 100 U/ml γ-IFN was added with and without the deacetylase inhibitor.
In general terms: Flow cytometry measures light scatter and fluorescence of single cells or particles in a stream.

For data set [1], the system named is HLA-DRα mRNA. Description: HLA-DRα mRNA by standard PCR and real-time PCR in human cell lines JAR and SK-N-MC. The format is cell-based. Particulars: JAR. On the procedure: (§1) To determine the effect of DAIs on HLA-DRα mRNA, cytoplasmic RNA was isolated from untreated and treated human trophoblast cell line JAR using standard techniques (RNeasy System from Qiagen). Standard PCR was performed using primers for DR and CIITA (Murphy et al., 1998, Reprod Dev., Chin et al., 1994, Immunity 1:687-697). Other primers used included human and mouse GAPDH (Clontech) and forward primer 5′-[…]-3′ (SEQ ID NO:25) and reverse primer 5′-[…]-3′ (SEQ ID NO:26) for mouse CIITA. PCR products were amplified with GOLD Taq for 10 min at 95° C., then 95° C. for 30 sec, 60° C. for 60 sec (25-45 cycles), then an extension at 60° C. for 10 min.
(§2) Oligonucleotide primers and TaqMan 5′-6-FAM and 3′-TAMRA-labeled probes were synthesized in the RPCI Biopolymer Facility. Primer and probe sequences are listed under Sequence Listing and also in FIG. 9. Sequences were designed using standard software (PrimerExpress software, PE Biosystems) except for human GAPDH.
(§3) Realtime PCR reactions contained TaqMan Universal PCR Master Mix (PE Biosystems), primers at 300 nM, and probes at optimal concentrations (150-225 nM depending on gene). Reactions were carried out on an ABI PRISM 7700 Sequence Detection System (PE Biosystems). Cycling conditions were 50° C. for 2 min, 95° C. for 10 min, then 60 cycles of 95° C. for 15 sec, 60° C. for 1 min. PCR samples were run in triplicate. The detection system and quantitative PCR was carried out as described by Williamson et al. (1995, Genet Res. 65:83-93). The threshold cycle number CT corresponded to the cycle number, at which the fluorescent emission reaches 10 standard deviations above the mean fluorescent emission, measured during the early ‘baseline’ cycles of the PCR. The CT values for triplicates were averaged and normalized to GAPDH levels. […] Assuming reverse transcription efficiencies were approximately the same for each sample, relative amounts of mRNA using the comparative CT method. Fold changes in mRNA levels were calculated as 2^x where x=the difference between normalized CT values of the control and experimental samples.
To evaluate the effects of DAIs on human cells, the human trophoblast cell line was treated with 100 nM Trichostatin A (TSA), IFNγ (100 U/ml) or a combination of TSA and IFNγ for 12 hours. RNA was isolated and real time quantitative RT-PCR was carried out. The fold increase in mRNA over the control was calculated.
Background: In qPCR the cycle at which signal appears reflects the starting amount.

Data set [2] concerns class II transactivator (CIITA) mRNA. Description: CIITA mRNA by standard PCR and real-time PCR in human cell lines JAR and SK-N-MC. The format is cell-based. On the procedure:
as §1, §2, §3
[…] RNA was isolated and real time quantitative RT-PCR was carried out. The fold increase in mRNA over the control was calculated.

For data set [3], the system named is HLA-DRα mRNA. In words: HLA-DRα mRNA by standard PCR and real-time PCR in human cell lines JAR and SK-N-MC. The class given is cell-based.
The test system of data set [4] is MHC class II protein on the cell surface. In words: Cell surface MHC class II protein by flow cytometry on Colon 26 and J558. The class given is cell-based, mouse. Particulars: J558; G2/M arrest experiment with nocodazole; data not shown. On the procedure:
To determine the effect of TSA on cell surface protein expression, the J558 cell line was subjected to flow cytometric analyses as follows. Flow cytometric analyses were conducted by standard methods using cells fixed with 1.0% paraformaldehyde and analyzed on the FACScan (Becton Dickinson). Cell cycle analyses were carried out by flow cytometry with PI staining of genomic DNA. Cells were fixed and permeablized in methanol, treated with RNaseA and analyzed for DNA content by determination of FL3-area on the FACScan. The FL3-area data were analyzed with the ModFit software for determination of the percent cells in each phase of the cell cycle. In some cases, fluorescein isothiocyanate (FITC)-conjugated antibody staining was conducted prior to PI treatment and surface staining was analyzed as a function of cell cycle phase. Apoptosis was analyzed by staining with annexin-V directly conjugated with either FITC or RPE and by sub-G0 analysis of DNA staining. Expression levels without treatment are shown as shaded peaks, IFNγ treated cell expression is plotted by a thin line while the level of expression on TSA treated cells is represented by a heavy line. Isotype controls were analyzed and, in each case, fell on or below the levels shown for control cells. MC and Colon 26 treatments are shown for 50 nM TSA for 48 hours, while J558 treatment is for 25 nM TSA for 24 hours. All IFNγ treatments were 100 U/ml for the same length of time as the corresponding TSA treatment. The percent of cells staining positive for MHC class II or CD40 expression is indicated below each histogram. Since all cells were positive for MHC class I expression, the number under the histogram represents -fold change of expression calculated from the mean channel-shift after treatment relative to untreated cells. Data are representative of at least three independent experiments. Of the 13 markers analyzed on J558 cells, only class I, II and CD40 were enhanced, while levels of several non-expressed antigens were not elicited (including CD25, B7 integrin, CD40L, H2K^k and IA^k) while other markers, which were expressed, were not altered (including CD44, CD54, CD80, CD86 and CD119) by TSA treatment. […] The highest expression (21-fold induction) was achieved on J558 cells after 24 hr by 25 nM TSA. […] The separation of control and IFNγ curves in the CD40, J558 experiment depicted in FIG. 8 represents a mean channel fluorescence difference of only 1.3 and was not seen on independent replicates of the experiment.
TSA has been described as a cell cycle inhibitor that induces both G1 and especially G2/M blocks (Bestor, 1998, Nature, 393:311-312; Yoshida et al., 1988, Exp. Cell Res. 177:122-131). MHC class II, but not class I, has been reported (Inokoshi et al., 1999, Biochem. Biophys. Res. Commun., 256:372-376; Monroe et al., 1983, J. Immunol., 130:626-631) to be regulated differentially during the cell cycle. Therefore the cell cycle of the cell lines used in the present invention was analyzed by DNA staining and flow cytometry with each of the treatment conditions under study. […] Two additional methods were used to analyze cell cycle effects on MHC expression. Since it has been reported that TSA arrests cell cycle mainly in G2/M, and class II has been reported to accumulate in G2/M (Monroe et al., 1983, supra), experiments were designed to essentially arrest 100% of J558 cells in G2/M with nocodazole. […] From the above experiments, it can be concluded that DAIs have specific effects on MHC class I and II, and CD40 gene expression, which is likely not a result of its action on the cell cycle.

Another data set concerns IAα mRNA. In words: MHC class II (IAα) mRNA by RT-PCR and real-time PCR in mouse tumor models. The format is cell-based. The method, then: as §1
(§4) In order to obtain more quantitative information on fold changes in DR and CIITA after treatment with the deacetylase inhibitors, a real time fluorescence technique capable of quantitating low copy numbers of transcripts was carried out as follows. Oligonucleotide primers and TaqMan 5′-6-FAM and 3′-TAMRA-labeled probes were synthesized in the RPCI Biopolymer Facility. Primer and probe sequences are listed under Sequence Listing and also in FIG. 9. Sequences were designed using standard software (PrimerExpress software, PE Biosystems) except for human GAPDH.
(§5) Realtime PCR reactions contained TaqMan Universal PCR Master Mix (PE Biosystems), primers at 300 nM, and probes at optimal concentrations (150-225 nM depending on gene). Reactions were carried out on an ABI PRISM 7700 Sequence Detection System (PE Biosystems). Cycling conditions were 50° C. for 2 min, 95° C. for 10 min, then 60 cycles of 95° C. for 15 sec, 60° C. for 1 min. PCR samples were run in triplicate. The detection system and quantitative PCR was carried out as described by Williamson et al. (1995, Genet Res. 65:83-93). The threshold cycle number CT corresponded to the cycle number, at which the fluorescent emission reaches 10 standard deviations above the mean fluorescent emission, measured during the early ‘baseline’ cycles of the PCR. The CT values for triplicates were averaged and normalized to GAPDH levels. […] In such cases, in order to calculate a minimum fold change for other samples in the same group, the CT value was arbitrarily set at 40. […] Assuming reverse transcription efficiencies were approximately the same for each sample, relative amounts of mRNA using the comparative CT method. Fold changes in mRNA levels were calculated as 2^x where x=the difference between normalized CT values of the control and experimental samples.
(§6) To determine if the effect of DAIs on MHC class II was manifested in other tumors and in different species, the effect of TSA was tested on four commonly used mouse tumor models: the SaI fibrosarcoma, the Colon 26 adenocarcinoma, the J558 plasmacytoma and the P815 mastocytoma. TSA induced class II in all four mouse tumors examined, while the effects of IFNγ were variable (FIG. 4). Data presented for each cell line represents optimal incubation time and concentration of TSA and is compared with 100 U/ml of IFNγ at the same time point. Numbers over bars represents fold changes. […] Colon 26 and J558 that differed strikingly in their reactivity to IFNγ were selected for further evaluation. RT-PCR and real time PCR was used to examine induction of CIITA and IAα by TSA and IFNγ. A20, a constitutively positive B cell line was used as a positive control. The results are shown in FIGS. 5A-D. The numbers over bars represent fold changes. […] Since the classical IFNγ inducible genes IRF-1 and GBP as well as MHC class I mRNA were not induced by IFNγ in J558 (data not shown), this cell line may have a signaling defect in the IFNγ pathway. Unexpectedly however, and unlike either the MC or Colon 26 cells, TSA induced both CIITA (102-fold) and Iα (537-fold) in J558 as shown in FIGS. 5B and 5D.

In another data set the test system is CIITA mRNA. Description: CIITA mRNA by RT-PCR and real-time PCR in mouse tumor cells Colon 26 and J558. The class given is cell-based. The method, then: as §1, §4, §5, §6

As for `CCCC(=O)[O-].[Na+]` [sodium butyrate], the toxicity entry with cell lines employed is given as “non toxic”. For the same molecule, the “fold increase in HLA-DRα (MHC class II) mRNA over the control” value in the data set on HLA-DRα mRNA [1] (real time quantitative RT-PCR, 100 nM TSA, IFNγ 100 U/ml or combination for 12 hours, sodium butyrate (FIG. 2)) turned out to be 12 fold. The “levels of mRNA for DR” value in the data set with HLA-DRα mRNA [1] (standard PCR, 100 nM or 250 nM TSA or 1 mM sodium butyrate) is recorded as “substantial increase”. In addition, in data set [2] (JAR, real time PCR, sodium butyrate (FIG. 2)), the “increase in class II transactivator (CIITA)” value is given as “no increase”. The CIITA transcription entry is reported as “undetectable” in data set [2] (JAR, standard PCR at 35 cycles, 100 nM or 250 nM TSA or 1 mM sodium butyrate) and “undetectable” in data set [2] (SK-N-MC, routine RT-PCR at 35 cycles, 100 nM TSA 24 hours, 1 mM NaBu 48 hours, IFNγ). In addition, the “CIITA mRNA fold change” value in data set [2] (MC cells, real time PCR up to 60 cycles, 100 nM TSA 24 hr, NaBu 1 mM 48 hr, IFNγ) is given as “no activation”. The “fold increase in expression of DR” value with HLA-DRα mRNA [3] (MC cells, real time PCR, 100 nM TSA 24 hr, NaBu 1 mM 48 hr, IFNγ any concentration or time point) amounted to 88 fold. Further, the “levels of mRNA for HLA-DRα (DR)” value in the data set on HLA-DRα mRNA [3] (SK-N-MC, RT-PCR, 100 nM TSA 24 hours, 1 mM NaBu 48 hours, IFNγ) is on record as “substantial increase”.

As for `COC(=O)Nc1nc2ccc(C(=O)c3cccs3)cc2[nH]1` [Nocodazole, nocodazole], the “MHC class II positive cells” value in data set [4] turned out to be 23%.

B1: IFNγ: gamma-interferon, cytokine used as comparator at 100 U/ml (protein, UniProt P01579 24-161, looked up)
Interferon gamma: QDPYVKEAENLKKYFNAGHSDVADNGTLFLGILKNWKEESDRKIMQSQIVSFYFKLFKNFKDDQSIQKSVETIKEDMNVKFFNSNKKKRDDFEKLTNYSVTDLNVQRKAIHELIQVMAELSPAAKTGKRKRSQMLFRG
On to B1, for which the “Iα (class II) fold induction” value in the data set with IAα mRNA is recorded as “did not activate”. Further, the CIITA fold induction result in the data set on CIITA mRNA is listed as “did not activate”.

For the origin of these results see patent US6518012B1, “Method for regulating the expression of MHC antigens and CD40 by inhibitors of histone deacetylation” (Health Research, Inc., priority 1999, dated 2003).
